Earlier results in patent US7901914B2, “Microbiological method of the biosynthesis of natural blue-violet colorants violacein and deoxyviolacein and the utilization thereof” (Stiftung Alfred-Wegener-Institut fuer Polar- und …, priority 2000, dated 2011).

solubility in organic solvents (in acetone, ethanol and dioxane): soluble
solubility in water (in water): practically insoluble
Compound: O=C1NC(c2c[nH]c3ccc(O)cc23)=C/C1=C1\C(=O)Nc2ccccc21 [violacein, 3-[1,2-dihydro-5-(5-hydroxy-1H-indole-3-yl)-2-oxo-3-H-pyrrole-3-ylidene]-1,3-dihydro-2H-indole-2-on]
